Where a name gives a salt, the structure may show the parent alone.
How the values were obtained:
[1] = target: T1, human M3 muscarinic receptor (Homo sapiens, UniProt P20309); assay: Inhibitory effect on methacholine-induced calcium influx, FLIPR assay, CHO-K1 cells stably expressing the human M3 muscarinic receptor; format: cell-based; details: inhibition of calcium influx induced by methacholine
T1 construct: expressed in transfected cells; host or cells: CHO-K1
From the text: Muscarinic receptor subtypes (M1, M3 and M5 receptors), which couple to Gq proteins, activate the phospholipase C (PLC) pathway upon agonist binding to the receptor. As a result, the activated PLC hydrolyzes phosphatidyl inositol diphosphate (PIP2) to diacyl glycerol (DAG) and […] (IP3), which in turn generates calcium release from intracellular stores, i.e., endoplasmic and sarcoplasmic reticula. By utilizing FLIPR (Molecular Devices, Inc.) assay in which a calcium sensitive dye (Component A) is used that fluoresces when free calcium binds, the increase in intracellular calcium is measured on the basis of the change in the fluorescence intensity.
Methacholine was added to CHO-K1 cells stably expressing the human M3 muscarinic receptor to induce calcium influx and evaluate the inhibitory effect of test compounds. In the experiment, a FLIPR Calcium assay kit (Molecular Devices, Inc.) was used.
CHO-K1 cells stably expressing the human M3 muscarinic receptor suspended in Ham's F-12 media (Invitrogen, Co.) containing 10% fetal bovine serum (FBS) were seeded into 96-well FLIPR plates at a volume of 100 μL/well. Next day, 60 μL/well of Non-wash-dye solution (Hank's buffered salt solution, HBSS, containing 20 mM HEPES and 6.5 mM probenecid) was added to the cells, which were then incubated for an hour at 37° C. in the presence of 5% carbon dioxide. 20 μL of 10 concentrations of test compound solutions (HBSS containing 1% DMSO, 20 mM HEPES, 2.5 mM probenecid and 0.05% bovine serum albumin, BSA) prepared at concentrations in a range of 0.01-1000 nM with 2-fold serial dilution) were added, followed by incubation for 180 seconds. Then, 20 μL of 30 nM methacholine solution (HBSS containing 20 mM HEPES, 2.5 mM probenecid and 0.05% bovine serum albumin, BSA) was added, and fluorescence intensity was traced by the intracellular calcium influx measuring device FLIPR 96 (Molecular Devices, Inc.) for 170 seconds. The difference between the lowest and the highest values of the fluorescence intensity (FI) over the period of the measurement was used as a measured value. The percentages of inhibition by the test compounds were calculated according to the following formula from the measured value of the methacholin-added and test compound non-added sample (FIpositive), the measured value of the methacholin non-added and test compound non-added sample (FInegative), and the measured value of the methacholin-added and test compound-added sample (FItest). (%) Percentage of inhibition by test compound=[(1−(FItest−FInegative)/(FIpositive−FInegative)]×100
The 50% inhibitory concentrations (IC50 values) of test compounds were analyzed by a four-parameter logistic model using XLfit4 (IDBS, Ltd.) for the percentage of the inhibition by different concentrations of test compounds.

[2] = target: T2, human β2 adrenergic receptor (Homo sapiens, UniProt P07550); assay: Whole-cell cAMP Flashplate assay using CHO-K1 cells stably expressing human β2 adrenergic receptor; format: cell-based; details: cAMP production
T2 construct: expressed in transfected cells; host or cells: CHO-K1
T2 sequence (P07550 whole entry): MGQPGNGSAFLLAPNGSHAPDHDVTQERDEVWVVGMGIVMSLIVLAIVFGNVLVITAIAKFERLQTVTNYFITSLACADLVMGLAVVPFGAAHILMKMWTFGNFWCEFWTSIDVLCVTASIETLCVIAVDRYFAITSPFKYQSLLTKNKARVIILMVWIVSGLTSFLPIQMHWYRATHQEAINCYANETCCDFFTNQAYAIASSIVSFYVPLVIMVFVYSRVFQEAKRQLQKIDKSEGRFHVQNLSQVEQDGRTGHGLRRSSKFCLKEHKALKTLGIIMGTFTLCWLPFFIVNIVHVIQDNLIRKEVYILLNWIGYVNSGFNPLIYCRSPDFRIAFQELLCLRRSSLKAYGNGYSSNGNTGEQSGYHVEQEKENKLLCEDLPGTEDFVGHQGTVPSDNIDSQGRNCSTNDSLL
Description: The β2 adrenergic receptor, which couples to Gs proteins, activates adenylate cyclase upon agonist binding to the receptor. As a result, cAMP is produced in cells. The activation ability of the β2 adrenergic receptor can be measured by measuring the amount of the cAMP with cAMP-Screen System (Applied Biosystems).
CHO-K1 cells expressing the human β2 adrenergic receptor suspended in Ham's F-12 media containing 10% FBS were seeded into 96-well plates at a volume of 100 μL/well. Next day, they were washed with 200 μL PBS(−), to which 80 μL of 0.5 mM IBMX solution (Ham's F-12 media containing 0.05% BSA) was then added, followed by incubation for 20 minutes at 37° C. in the presence of 5% carbon dioxide. 20 μL of 9 concentrations of test compound solutions (0.5 mM IBMX solution containing 1% DMSO) prepared at concentrations in a range of 0.01-1000 nM with 2-fold serial dilution) were added, followed by incubation for 20 minutes at 37° C. in the presence of 5% carbon dioxide. Then, 100 μL of Assay/Lysis Buffer (a reagent that comes with cAMP Screen System) was added. The cells were lysed by pipetting, further incubated for 30 minutes at 37° C., and then frozen at −80° C. After several days, samples, thawed at room temperature, were treated according to the protocol of cAMP Screen System, and then chemiluminescence was measured by EnVision (PerkinElmer, Inc.). The amount of cAMP was calculated from the standard curve for the standard attached to cAMP Screen System.
The concentrations of a test compound at which 50% of its maximal effect is reached (EC50 values) were analyzed by a four-parameter logistic model using XLfit4 (IDBS, Ltd.) for the amounts of cAMP production at different concentrations of the test compounds.

T1 sequence (P20309 whole entry): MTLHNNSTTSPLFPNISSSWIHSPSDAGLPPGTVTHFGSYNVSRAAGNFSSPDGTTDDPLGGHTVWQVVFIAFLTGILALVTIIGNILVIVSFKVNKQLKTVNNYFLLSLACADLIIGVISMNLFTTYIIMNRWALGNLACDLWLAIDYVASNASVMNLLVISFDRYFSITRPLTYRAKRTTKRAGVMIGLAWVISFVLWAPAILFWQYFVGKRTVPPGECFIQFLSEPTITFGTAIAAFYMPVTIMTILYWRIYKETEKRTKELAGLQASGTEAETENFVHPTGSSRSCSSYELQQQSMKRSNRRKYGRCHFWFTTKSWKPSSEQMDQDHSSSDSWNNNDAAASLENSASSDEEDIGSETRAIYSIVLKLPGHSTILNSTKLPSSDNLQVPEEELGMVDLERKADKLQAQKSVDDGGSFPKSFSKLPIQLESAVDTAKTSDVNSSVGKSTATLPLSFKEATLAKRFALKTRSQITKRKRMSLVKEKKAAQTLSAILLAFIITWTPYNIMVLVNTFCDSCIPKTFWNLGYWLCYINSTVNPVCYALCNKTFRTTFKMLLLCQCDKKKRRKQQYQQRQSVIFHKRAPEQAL

Compound | IC50 [1] | EC50 [2]
C[N+]1(C)CCC(OC(=O)Nc2cc(CCC(=O)Nc3ccc(CNC[C@H](O)c4ccc(O)c5[nH]c(=O)ccc45)c(Cl)c3)ccc2-c2ccccc2)CC1 [Example 3, 4-({[5-(2-{[3-chloro-4-({[(2R)-2-hydroxy-2-(8-hydroxy-2-oxo-1,2-dihydroquinolin-5-yl)ethyl]amino}methyl)phenyl]carbamoyl}ethyl)-2-phenylphenyl]carbamoyl}oxy)-1,1-dimethylpiperidin-1-ium trifluoroacetate] | 16.2 nM | 9.7 nM
C[N+]1(C)CCC(OC(=O)Nc2cc(CCC(=O)Nc3ccc(CNC[C@H](O)c4ccc(O)c5[nH]c(=O)ccc45)cc3F)ccc2-c2ccccc2)CC1 [Example 4, 4-({[5-(2-{[2-fluoro-4-({[2R)-2-hydroxy-2-(8-hydroxy-2-oxo-1,2-dihydroquinolin-5-yl)ethyl]amino}methyl)phenyl]carbamoyl}ethyl)-2-phenylphenyl]carbamoyl}oxy)-1,1-dimethylpiperidin-1-ium trifluoroacetate] | 4.9 nM | 4.1 nM
C[N+]1(C)CCC(OC(=O)Nc2cc(CCC(=O)Nc3cc(F)c(CNC[C@H](O)c4ccc(O)c5[nH]c(=O)ccc45)cc3F)ccc2-c2ccccc2)CC1 [Example 5, 4-({[5-(2-{[2,5-difluoro-4-({[(2R)-2-hydroxy-2-(8-hydroxy-2-oxo-1,2-dihydroquinolin-5-yl)ethyl]amino}methyl)phenyl]carbamoyl}ethyl)-2-phenylphenyl]carbamoyl}oxy)-1,1-dimethylpiperidin-1-ium trifluoroacetate] | 19.2 nM | 8.2 nM
C[N+]1(C)CCC(OC(=O)Nc2cc(CCC(=O)Nc3ccc(CNC[C@H](O)c4ccc(O)c5[nH]c(=O)ccc45)c(F)c3)ccc2-c2ccccc2)CC1 [Example 7, 4-({[5-(2-{[3-fluoro-4-({[(2R)-2-hydroxy-2-(8-hydroxy-2-oxo-1,2-dihydroquinolin-5-yl)ethyl]amino}methyl)phenyl]carbamoyl}ethyl)-2-phenylphenyl]carbamoyl}oxy)-1,1-dimethylpiperidin-1-ium trifluoro acetate] | 14.5 nM | 5.1 nM
Cc1cc(NC(=O)CCc2ccc(-c3ccccc3)c(NC(=O)OC3CC[N+](C)(C)CC3)c2)ccc1CNC[C@H](O)c1ccc(O)c2[nH]c(=O)ccc12 [Example 8, 4-({[5-(2-{[4-({[(2R)-2-hydroxy-2-(8-hydroxy-2-oxo-1,2-dihydroquinolin-5-yl)ethyl]amino}methyl)-3-methylphenyl]carbamoyl}ethyl)-2-phenylphenyl]carbamoyl}oxy)-1,1-dimethylpiperidin-1-ium trifluoroacetate] | 13.5 nM | 5.1 nM
C[N+]1(C)CCC(OC(=O)Nc2cc(CCC(=O)Nc3ccc(CNC[C@H](O)c4ccc(O)c5[nH]c(=O)ccc45)cc3Cl)ccc2-c2ccccc2)CC1 [Example 9, 4-({[5-(2-{[2-chloro-({[(2R)-2-hydroxy-2-(8-hydroxy-2-oxo-1,2-dihydroquinolin-5-yl)ethyl]amino}methyl)phenyl]carbamoyl}ethyl)-2-phenylphenyl]carbamoyl}oxy)-1,1-dimethylpiperidin-1-ium trifluoroacetate] | 10.1 nM | 1.9 nM
COc1cc(CNC[C@H](O)c2ccc(O)c3[nH]c(=O)ccc23)ccc1NC(=O)CCc1ccc(-c2ccccc2)c(NC(=O)OC2CC[N+](C)(C)CC2)c1 [Example 10, 4-({[5-(2-{[4-({[(2R)-2-hydroxy-2-(8-hydroxy-2-oxo-1,2-dihydroquinolin-5-yl)ethyl]amino}methyl)-2-methoxyphenyl]carbamoyl}ethyl)-2-phenylphenyl]carbamoyl}oxy)-1,1-dimethylpiperidin-1-ium trifluoroacetate] | 10.5 nM | 3.9 nM
Cc1cc(CNC[C@H](O)c2ccc(O)c3[nH]c(=O)ccc23)ccc1NC(=O)CCc1ccc(-c2ccccc2)c(NC(=O)OC2CC[N+](C)(C)CC2)c1 [Example 11, 4-({[5-(2-{[4-({[(2R)-2-hydroxy-2-(8-hydroxy-2-oxo-1,2-dihydroquinolin-5-yl)ethyl]amino}methyl)-2-methylphenyl]carbamoyl}ethyl)-2-phenylphenyl]carbamoyl}oxy)-1,1-dimethylpiperidin-1-ium trifluoroacetate] | 9.7 nM | 3.7 nM
C[N+]1(C)CCC(OC(=O)Nc2cc(CCC(=O)Nc3ccc(CNC[C@H](O)c4ccc(O)c5[nH]c(=O)ccc45)cn3)ccc2-c2ccccc2)CC1 [Example 17, 4-({[5-(2-{[5-({[(2R)-2-hydroxy-2-(8-hydroxy-2-oxo-1,2-dihydroquinolin-5-yl)ethyl]amino}methyl)pyridin-2-yl]carbamoyl}ethyl)-2-phenylphenyl]carbamoyl}oxy)-1,1-dimethylpiperidin-1-ium trifluoroacetate] | 11.4 nM | 5.9 nM
COc1cc(CNC[C@H](O)c2ccc(O)c3[nH]c(=O)ccc23)ccc1NC(=O)CCCc1ccc(-c2ccccc2)c(NC(=O)OC2CC[N+](C)(C)CC2)c1 [Example 21, 4-({[5-(3-{[4-({[(2R)-2-hydroxy-2-(8-hydroxy-2-oxo-1,2-dihydroquinolin-5-yl)ethyl]amino}methyl)-2-methoxyphenyl]carbamoyl}propyl)-2-phenylphenyl]carbamoyl}oxy)-1,1-dimethylpiperidin-1-ium trifluoroacetate] | 16.8 nM | 3.8 nM
C[N+]1(C)CCC(OC(=O)Nc2cc(/C=C/C(=O)Nc3ccc(CNC[C@H](O)c4ccc(O)c5[nH]c(=O)ccc45)cc3)ccc2-c2ccccc2)CC1 [Example 67, 4-[({5-[(1E)-2-{[4-({[(2R)-2-hydroxy-2-(8-hydroxy-2-oxo-1,2-dihydroquinolin-5-yl)ethyl]amino}methyl)phenyl]carbamoyl}-1-ethen-1-yl]-2-phenylphenyl}carbamoyl)oxy]-1,1-dimethylpiperidin-1-ium trifluoroacetate] | – | 0.4 nM
C[N+]1(C)CCC(OC(=O)Nc2cc(CCC(=O)NCCCCCNC[C@H](O)c3ccc(O)c4[nH]c(=O)ccc34)ccc2-c2ccccc2)CC1 [Example 74, 4-({[5-(2-{[5-{[(2R)-2-hydroxy-2-(8-hydroxy-2-oxo-1,2-dihydroquinolin-5-yl)ethyl]amino}pentyl]carbamoyl}ethyl)-2-phenylphenyl]carbamoyl}oxy)-1,1-dimethylpiperidin-1-ium trifluoroacetate] | – | 4.5 nM
C[N+]1(C)CCC(OC(=O)Nc2cc(C(=O)OCCCCCCCNCC(O)c3ccc(O)c4[nH]c(=O)ccc34)ccc2-c2ccccc2)CC1 [Example 75, 4-{[5-({[(7-{[(2R)-2-hydroxy-2-(8-hydroxy-2-oxo-1,2-dihydroquinolin-5-yl)ethyl]amino}heptyl)oxy]carbonyl}-2-phenylphenyl)carbamoyl]oxy}-1,1-dimethylpiperidin-1-ium trifluoro acetate] | – | 0.5 nM
C[N+]1(C)CCC(OC(=O)Nc2cc(OCCOc3ccc(CCNC[C@H](O)c4ccc(O)c5[nH]c(=O)ccc45)cc3)ccc2-c2ccccc2)CC1 [Example 79, 4-{[(5-{2-[4-(2-{[(2R)-2-hydroxy-2-(8-hydroxy-2-oxo-1,2-dihydroquinolin-5-yl)ethyl]amino}ethyl)phenoxy]ethoxy}-2-phenylphenyl)carbamoyl]oxy}-1,1-dimethylpiperidin-1-ium trifluoro acetate] | – | 5.8 nM
